Laboratory results reported in the supplement of paper PMC10307832.

Key:
Experiment in all cases: relative viability (nuclei count vs DMSO), 5 days (fraction); higher = more cells survive
XMD8-85 = compound: CN1CCN(CC1)C2=CC(=C(C=C2)NC3=NC=C4C(=N3)N(C5=CC=CC=C5C(=O)N4C)C)OC [XMD8-85]
Outline: (§1)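 A plate was accepted only when its control CV was below 25% and the cells had doubled at least once. Viability is defined from nuclear counts as treated wells divided by vehicle wells, with the median taken across plates. That median covers lung cancer cell lines grown in 1536-well plates, dosed by pinning at five √10-spaced library-drug concentrations, and counted in MetaXpress from 4× Hoechst images after 5 days.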

4EGI-1 = compound: O=C(O)C(Cc1ccccc1[N+](=O)[O-])=NNc1nc(-c2ccc(Cl)c(Cl)c2)cs1 (mixture of isomers) [4EGI-1]
Outline: as §1

4EGI-1 + AZD7762 = compound: O=C(O)C(Cc1ccccc1[N+](=O)[O-])=NNc1nc(-c2ccc(Cl)c(Cl)c2)cs1 (mixture of isomers) [4EGI-1] + NC(=O)Nc1cc(-c2cccc(F)c2)sc1C(=O)N[C@H]1CCCNC1 [AZD7762] (partner 0.2 µM)
Outline: (§2)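 Lung cancer cell lines in 1536-well plates got either a single drug or a fixed anchor-drug dose together with five library-drug doses (not always all listed) in √10 steps, by pin tool, on the day after seeding. Nuclei were counted after 5 days, and relative viability is the treated-to-vehicle ratio of nuclei counts. Values are medians of duplicate plates.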

XMD8-85 + Navitoclax = compound: CN1CCN(CC1)C2=CC(=C(C=C2)NC3=NC=C4C(=N3)N(C5=CC=CC=C5C(=O)N4C)C)OC [XMD8-85] + CC1(C)CCC(c2ccc(Cl)cc2)=C(CN2CCN(c3ccc(C(=O)NS(=O)(=O)c4ccc(N[C@H](CCN5CCOCC5)CSc5ccccc5)c(S(=O)(=O)C(F)(F)F)c4)cc3)CC2)C1 [Navitoclax] (partner 0.5 µM)
Outline: as §2

With NCI-H1792 the relative viability (XMD8-85; 0.253 µM) was 0.904, the relative viability (XMD8-85; 2.53 µM) was 1.14 and the relative viability (XMD8-85; 8 µM) was 0.704. For the same cell line, the relative viability (4EGI-1; 0.5 µM) was 0.99, the relative viability (4EGI-1; 1.581 µM) was 1.1 and the relative viability (4EGI-1; 5 µM) was 0.941. The relative viability (4EGI-1; 15.81 µM) was 0.903, the relative viability (4EGI-1; 50 µM) was 0.608 and the relative viability (4EGI-1 + AZD7762; first compound 0.5 µM) was 0.67. The relative viability (4EGI-1 + AZD7762; first compound 1.581 µM) was 0.822, the relative viability (4EGI-1 + AZD7762; first compound 5 µM) was 0.861 and the relative viability (4EGI-1 + AZD7762; first compound 15.81 µM) was 0.657. For the same cell line, the relative viability (4EGI-1 + AZD7762; first compound 50 µM) was 0.0923, the relative viability (XMD8-85 + Navitoclax; first compound 0.08 µM) was 0.488 and the relative viability (XMD8-85 + Navitoclax; first compound 0.253 µM) was 0.398. For the same cell line, the relative viability (XMD8-85 + Navitoclax; first compound 2.53 µM) was 0.482 and the relative viability (XMD8-85 + Navitoclax; first compound 8 µM) was 0.49.
